Experiment: in vitro
Conditions: human, hek293t cells
In the case of Cc1cc(C(=O)CCl)c(C)n1-c1cc(Cl)cc(Cl)c1 [10-I04, 2-chloro-1-[1-(3,5-dichlorophenyl)-2,5-dimethyl-1H-pyrrol-3-yl]ethan-1-one], the viability at 48 h, 25 µM is reported as 0.227%.
With Cc1cc(C=C2CCN(C(=O)C(C)Cl)CC2)no1 (stereo not shown) [6-N03, 2-chloro-1-{4-[(5-methyl-1,2-oxazol-3-yl)methylidene]piperidin-1-yl}propan-1-one] the viability at 48 h, 25 µM was 104%.
For C=CC(=O)NCc1c(C(F)(F)F)coc1C [1-E17, N-{[2-methyl-4-(trifluoromethyl)furan-3-yl]methyl}prop-2-enamide], the viability at 48 h, 25 µM was 84.9%.
Work on CCOc1ccc(N2C(=O)C=CC2=O)cc1 [10-A14, 1-(4-ethoxyphenyl)-2,5-dihydro-1H-pyrrole-2,5-dione] yielded a viability at 48 h, 25 µM of 4.27%.
COc1cc(NC(=O)CCl)cc(OC)c1 [4-G09, 2-chloro-N-(3,5-dimethoxyphenyl)acetamide] gave a viability at 48 h, 25 µM of 8.6%.
Compound Cc1cc(NS(=O)(=O)c2ccc(NC(=O)CCl)cc2)nc(C)n1 [5-I09, 2-chloro-N-{4-[(2,6-dimethylpyrimidin-4-yl)sulfamoyl]phenyl}acetamide] has a viability at 48 h, 25 µM of 1.31%.
Work on CC(Cl)C(=O)N1CCC(Oc2cnc3ccccc3n2)CC1 (stereo not shown) [7-I18, 2-chloro-1-[4-(quinoxalin-2-yloxy)piperidin-1-yl]propan-1-one] yielded a viability at 48 h, 25 µM of 68.7%.
C=CC(=O)N(C)CC1(O)CCc2ccccc21 (stereo not shown) [3-D11, N-[(1-hydroxy-2,3-dihydro-1H-inden-1-yl)methyl]-N-methylprop-2-enamide] gave a viability at 48 h, 25 µM of 58.6%.
Compound N#CC(=Cc1ccc(Cl)cc1)C(=O)Nc1cccc2c1C(=O)NC2=O [9-D09, 3-(4-chlorophenyl)-2-cyano-N-(1,3-dioxo-2,3-dihydro-1H-isoindol-4-yl)prop-2-enamide] has a viability at 48 h, 25 µM of 105%.
With O=C1C=CC(=O)N1c1ccc2ccccc2c1 [10-D07, 1-(naphthalen-2-yl)-2,5-dihydro-1H-pyrrole-2,5-dione] the viability at 48 h, 25 µM was 74.4%.
Compound C=CC(=O)N1CCOC2(CCS(=O)(=O)C2)C1 (stereo not shown) [2-C06, 9-(prop-2-enoyl)-6-oxa-2lambda6-thia-9-azaspiro[4.5]decane-2,2-dione] has a viability at 48 h, 25 µM of 101%.
Compound O=C(CCl)c1ccc2[nH]c(=O)[nH]c2c1 [10-I14, 5-(2-chloroacetyl)-2,3-dihydro-1H-1,3-benzodiazol-2-one] has a viability at 48 h, 25 µM of 1.71%.
Work on O=C(CCl)N(Cc1nc(C2CCCCCC2)no1)C1CC1 [7-B16, 2-chloro-N-[(3-cycloheptyl-1,2,4-oxadiazol-5-yl)methyl]-N-cyclopropylacetamide] yielded a viability at 48 h, 25 µM of 0.667%.
C=CC(=O)N[C@@H](CC(N)=O)c1cccc(Cl)c1 [1-I15, N-[(1S)-2-carbamoyl-1-(3-chlorophenyl)ethyl]prop-2-enamide] gave a viability at 48 h, 25 µM of 81.6%.
Compound CCOc1cc(C=C(C#N)C(=O)N2CCCC2)cc(Cl)c1O [8-M06, 3-(3-chloro-5-ethoxy-4-hydroxyphenyl)-2-(pyrrolidine-1-carbonyl)prop-2-enenitrile] has a viability at 48 h, 25 µM of 92.1%.
Work on N#CC(=Cc1ccccc1[N+](=O)[O-])C(=O)Nc1ccc2c(c1)OCCO2 [9-O20, 2-cyano-N-(2,3-dihydro-1,4-benzodioxin-6-yl)-3-(2-nitrophenyl)prop-2-enamide] yielded a viability at 48 h, 25 µM of 108%.
Work on C=CC(=O)N1CCN(Cc2ccon2)CC1 [1-N20, 1-{4-[(1,2-oxazol-3-yl)methyl]piperazin-1-yl}prop-2-en-1-one] yielded a viability at 48 h, 25 µM of 79.6%.
In the case of N#CC(=Cc1ccc2c(c1)OCO2)C(=O)NCc1ccco1 [9-A15, 3-(1,3-dioxaindan-5-yl)-2-cyano-N-[(furan-2-yl)methyl]prop-2-enamide], the viability at 48 h, 25 µM is reported as 119%.
For Cc1noc(C)c1CN(C)C(=O)CCl [5-G06, 2-chloro-N-[(3,5-dimethyl-1,2-oxazol-4-yl)methyl]-N-methylacetamide], the viability at 48 h, 25 µM was 1.87%.
For CSc1ccc(C=C(C#N)C(=O)Nc2c(C)cc(C)cc2C)cc1 [8-G15, 2-cyano-3-[4-(methylsulfanyl)phenyl]-N-(2,4,6-trimethylphenyl)prop-2-enamide], the viability at 48 h, 25 µM was 111%.
C=CC(=O)N1CCC(C(=O)N2CCC[C@H]2c2ncn[nH]2)CC1 [2-D12, 1-{4-[(2S)-2-(1H-1,2,4-triazol-5-yl)pyrrolidine-1-carbonyl]piperidin-1-yl}prop-2-en-1-one] gave a viability at 48 h, 25 µM of 81.3%.
With O=C(CCl)N1CCCC1c1nc(Cc2ccc(F)cc2)no1 (stereo not shown) [5-M10, 2-chloro-1-(2-{3-[(4-fluorophenyl)methyl]-1,2,4-oxadiazol-5-yl}pyrrolidin-1-yl)ethan-1-one] the viability at 48 h, 25 µM was 0.55%.
With C=CC(=O)N1CCC(C(=O)NCc2ccc(C(N)=O)nc2)CC1 [3-N05, 5-({[1-(prop-2-enoyl)piperidin-4-yl]formamido}methyl)pyridine-2-carboxamide] the viability at 48 h, 25 µM was 59.8%.
Cc1cc(N(CCC#N)C(=O)CCl)ccc1Cl [4-K15, 2-chloro-N-(4-chloro-3-methylphenyl)-N-(2-cyanoethyl)acetamide] gave a viability at 48 h, 25 µM of 0.75%.
With CC1CCCN1C(=O)CNC(=O)CCl (stereo not shown) [7-L12, 2-chloro-N-[2-(2-methylpyrrolidin-1-yl)-2-oxoethyl]acetamide] the viability at 48 h, 25 µM was 83.6%.
In the case of C=CC(=O)N1CCNC(=O)C1Cc1nc2ccccc2o1 (stereo not shown) [1-B20, 3-[(1,3-benzoxazol-2-yl)methyl]-4-(prop-2-enoyl)piperazin-2-one], the viability at 48 h, 25 µM is reported as 82.9%.
Cc1c(Cl)cccc1NC(=O)C(C#N)=Cc1cccs1 [9-B05, N-(3-chloro-2-methylphenyl)-2-cyano-3-(thiophen-2-yl)prop-2-enamide] showed a viability at 48 h, 25 µM of 108%.
Work on CC(Cl)C(=O)Nc1sccc1C#N (stereo not shown) [5-E21, 2-chloro-N-(3-cyanothiophen-2-yl)propanamide] yielded a viability at 48 h, 25 µM of 59%.
In the case of COc1cc(C=C(C#N)C(=O)NC2CCCCC2C)cc(OC)c1O (stereo not shown) [9-H21, 2-cyano-3-(4-hydroxy-3,5-dimethoxyphenyl)-N-(2-methylcyclohexyl)prop-2-enamide], the viability at 48 h, 25 µM is reported as 95.8%.
With COc1cc(Cl)c(C)cc1N1C(=O)C=CC1=O [10-B15, 1-(4-chloro-2-methoxy-5-methylphenyl)-2,5-dihydro-1H-pyrrole-2,5-dione] the viability at 48 h, 25 µM was 85.2%.
O=C(CCl)N1CCCCc2ccc([N+](=O)[O-])cc21 [5-I18, 2-chloro-1-(8-nitro-2,3,4,5-tetrahydro-1H-1-benzazepin-1-yl)ethan-1-one] showed a viability at 48 h, 25 µM of 1.56%.
C=CC(=O)NCc1ncccc1-n1cccn1 [2-N19, N-{[3-(1H-pyrazol-1-yl)pyridin-2-yl]methyl}prop-2-enamide] gave a viability at 48 h, 25 µM of 70.3%.
For C=CC(=O)NCCNC(=O)c1c(C)cc(C)nc1C [2-I12, N-{2-[(2,4,6-trimethylpyridin-3-yl)formamido]ethyl}prop-2-enamide], the viability at 48 h, 25 µM was 104%.
In the case of C=CC(=O)NC(CO)c1cccc(OC)c1 (stereo not shown) [2-E22, N-[2-hydroxy-1-(3-methoxyphenyl)ethyl]prop-2-enamide], the viability at 48 h, 25 µM is reported as 122%.
C=CC(=O)N(C)CC(=O)Nc1ccc(N2CCC(O)CC2)cc1 [3-P06, N-({[4-(4-hydroxypiperidin-1-yl)phenyl]carbamoyl}methyl)-N-methylprop-2-enamide] showed a viability at 48 h, 25 µM of 65.6%.
Work on Cc1ccc(C=C(C#N)C(=O)Nc2cccc3ccccc23)cc1 [8-M14, 2-cyano-3-(4-methylphenyl)-N-(naphthalen-1-yl)prop-2-enamide] yielded a viability at 48 h, 25 µM of 121%.
O=C(CCl)N1CCc2sccc2C1c1cccs1 (stereo not shown) [4-L20, 2-chloro-1-[4-(thiophen-2-yl)-4H,5H,6H,7H-thieno[3,2-c]pyridin-5-yl]ethan-1-one] gave a viability at 48 h, 25 µM of -0.242%.

— publication PMC11995724, “Antibiotic target discovery by integrated phenotypic and activity-based profiling of electrophilic fragments” (Cell chemical biology, 2025)
